Source: patent US7208466B1 (priority 1999, dated 2007)

System: mice
Settings: mouse, in vivo

CN1CC[C@]23c4c5ccc(O)c4O[C@H]2[C@@H](O)C=C[C@H]3[C@H]1C5 [morphine]
period over which effect declines / returns to control levels: 5 h | time of maximal effect: 1 h
